Results taken from paper PMC6112376, “Comprehensive Analyses and Prioritization of Tox21 10K Chemicals Affecting Mitochondrial Function by in-Depth Mechanistic Studies” (Environmental Health Perspectives, 2018).
Read-outs that look alike come from different tables or passages of the source.

What was measured:
[1] = test system: isolated rat liver mitochondria; test: Oxygen consumption, Clark-type oxygen electrode; assay type: biochemical
HepG2 cells [2] = settings: cited from earlier work
[3] = target: T1, mitochondrial respiratory chain complex II (Rattus norvegicus, UniProt P21913+Q641Z9+Q6PCT8+Q920L2); test: Respiratory chain complex II activity; assay type: biochemical; settings: tested up to 100μM
T1 construct: Submitochondrial particles were prepared by subjecting the intact rat mitochondria, isolated as described above, to three successive freeze–thaw cycles; from tissue; host or cells: rat liver mitochondria (submitochondrial particles)
T1 sequence (Q920L2 35-656): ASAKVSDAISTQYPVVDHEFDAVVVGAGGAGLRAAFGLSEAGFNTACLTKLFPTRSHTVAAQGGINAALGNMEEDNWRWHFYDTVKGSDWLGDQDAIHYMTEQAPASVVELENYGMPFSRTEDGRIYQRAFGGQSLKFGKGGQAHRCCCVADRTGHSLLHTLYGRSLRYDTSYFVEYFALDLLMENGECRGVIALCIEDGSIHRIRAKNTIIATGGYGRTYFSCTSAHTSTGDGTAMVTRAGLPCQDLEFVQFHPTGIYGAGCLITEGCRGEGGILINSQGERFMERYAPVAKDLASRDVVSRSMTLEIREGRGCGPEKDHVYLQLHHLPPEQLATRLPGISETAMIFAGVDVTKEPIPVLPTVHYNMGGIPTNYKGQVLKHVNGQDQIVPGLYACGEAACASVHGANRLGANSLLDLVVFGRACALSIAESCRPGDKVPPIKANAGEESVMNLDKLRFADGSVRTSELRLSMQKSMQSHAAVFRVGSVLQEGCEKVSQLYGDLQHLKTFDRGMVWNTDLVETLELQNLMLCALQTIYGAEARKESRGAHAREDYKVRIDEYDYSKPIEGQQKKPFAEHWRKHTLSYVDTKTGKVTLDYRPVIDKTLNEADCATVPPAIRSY
T1 sequence (P21913 31-282): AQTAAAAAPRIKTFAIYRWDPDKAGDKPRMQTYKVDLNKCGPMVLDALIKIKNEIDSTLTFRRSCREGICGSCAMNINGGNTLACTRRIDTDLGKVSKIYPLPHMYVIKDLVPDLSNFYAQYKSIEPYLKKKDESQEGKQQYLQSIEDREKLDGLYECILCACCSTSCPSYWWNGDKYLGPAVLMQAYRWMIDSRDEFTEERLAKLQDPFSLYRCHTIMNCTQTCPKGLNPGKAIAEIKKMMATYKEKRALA
T1 sequence (Q641Z9 1-169): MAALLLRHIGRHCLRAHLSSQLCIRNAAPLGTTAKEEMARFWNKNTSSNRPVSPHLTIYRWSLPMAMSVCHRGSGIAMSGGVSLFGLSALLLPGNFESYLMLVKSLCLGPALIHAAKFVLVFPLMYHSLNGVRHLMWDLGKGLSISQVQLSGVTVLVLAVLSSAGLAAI
T1 sequence (Q6PCT8 57-159): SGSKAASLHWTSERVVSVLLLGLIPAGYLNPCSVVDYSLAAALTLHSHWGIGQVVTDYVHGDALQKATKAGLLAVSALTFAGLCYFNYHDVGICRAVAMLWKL

[4] = test system: HeLa cells expressing YFP-Parkin; test: Parkin translocation assay; assay type: cell-based, human
[5] = test system: mitochondrial respiratory chain complex V; assay type: biochemical, rat
hNSC = test: MMP assay in human neural stem cells (hNSC); assay type: cell-based; settings: Homo sapiens, Neural stem cell, 1 h, read-out: hNSC IC50 (MMP)
[6] = test system: Nrf2/ARE (ARE-bla HepG2 cells); test: ARE β-lactamase reporter gene assay; assay type: cell-based, human; settings: 16 h incubation; mean±SD of three experiments
[7] = test system: mitochondrial respiratory chain complex I; assay type: biochemical, rat; settings: at 100μM
[8] = test system: Caenorhabditis elegans strain PE255; test: In vivo C. elegans ATP status assay
[9] = test system: Caenorhabditis elegans (Bristol N2); settings: Bristol N2 (wild type), Caenorhabditis elegans, in vivo
[10] = test system: mitochondrial respiratory chain complex III; assay type: biochemical, rat
HepG2 cells [11] = test: cells; settings: Homo sapiens
[12] = test system: p53 (p53-bla HCT-116 cells); test: p53 β-lactamase reporter gene assay; assay type: cell-based, human; settings: 16 h incubation; mean±SD of three experiments
rat primary hepatocytes [13] = test: MMP assay in rat primary hepatocytes; settings: Rattus norvegicus, Hepatocyte
rat primary hepatocytes [14] = test system: rat primary hepatocytes
[15] = test system: mitochondrial respiratory chain complex IV; assay type: biochemical, rat
HepG2 cells [16] = test: Intracellular ATP content (cell viability) assay; assay type: cell-based, human; settings: Homo sapiens, HepG2, 40 h
[17] = test system: Caenorhabditis elegans (Bristol N2); test: C. elegans larval development and growth assay
HepG2 cells [18] = test: ROS-Glo hydrogen peroxide (ROS) assay; assay type: cell-based, human

In the case of `CC[C@@H](C(=O)[C@@H](C)[C@@H](O)[C@H](C)CCc1ccc(C)c(O)c1C(=O)O)[C@H]1O[C@](CC)([C@H]2CC[C@](O)(CC)[C@H](C)O2)C[C@@H]1C` [Lasalocid sodium, reference compound], the “Potential Mechanism” value [1] is reported as “Uncoupler + Inhibitor”, the “I-ADP, % of control (O2 consumption rate)” value ([1]; 0.032 µM) is reported as 102 (33.0) % of control and the “I-sub, % of control (O2 consumption rate)” value ([1]; 0.032 µM) is reported as 114 (12.4) % of control. For the same molecule, the “II-ADP, % of control (O2 consumption rate)” value (shortened to “II-ADP, % of control”) ([1]; 0.032 µM) was 87 (52.0) % of control, the “II-sub, % of control (O2 consumption rate)” value (“II-sub, % of control” for short) ([1]; 0.032 µM) was 98 (20.1) % of control and the “I-ADP, % of control (O2 consumption rate)” value ([1]; 0.16 µM) was 105 (34.0) % of control. The “I-sub, % of control (O2 consumption rate)” value ([1]; 0.16 µM) was 118 (12.9) % of control, the “II-ADP, % of control” value ([1]; 0.16 µM) was 72 (43.1) % of control and the “II-sub, % of control” value ([1]; 0.16 µM) was 107 (22.1) % of control. The “I-ADP, % of control (O2 consumption rate)” value ([1]; 0.8 µM) was 90 (29.2) % of control, the “I-sub, % of control (O2 consumption rate)” value ([1]; 0.8 µM) was 120 (13.1) % of control and the “II-ADP, % of control” value ([1]; 0.8 µM) was 57 (34.1) % of control. The “II-sub, % of control” value ([1]; 0.8 µM) was 115 (23.6) % of control, the “I-ADP, % of control (O2 consumption rate)” value ([1]; 4 µM) was 81 (26.3) % of control and the “I-sub, % of control (O2 consumption rate)” value ([1]; 4 µM) was 164 (17.9) % of control. For the same molecule, the “II-ADP, % of control” value ([1]; 4 µM) was 60 (35.9) % of control, the “II-sub, % of control” value ([1]; 4 µM) was 151 (31.2) % of control and the “I-ADP, % of control (O2 consumption rate)” value ([1]; 20 µM) was 107 (34.7) % of control. The “I-sub, % of control (O2 consumption rate)” value ([1]; 20 µM) was 347 (37.8) % of control, the “II-ADP, % of control” value ([1]; 20 µM) was 48 (28.6) % of control and the “II-sub, % of control” value ([1]; 20 µM) was 160 (33.0) % of control. The “I-ADP, % of control (O2 consumption rate)” value ([1]; 100 µM) was 16 (8.1) % of control, the “I-sub, % of control (O2 consumption rate)” value ([1]; 100 µM) was 32 (6.9) % of control and the “II-ADP, % of control” value ([1]; 100 µM) was 20 (11.6) % of control. The “II-sub, % of control” value ([1]; 100 µM) was 39 (13.7) % of control, the “MMP assays efficacy (%) qHTS-HepG2” value (HepG2 cells [2]) was -107±4% and the IC50 (HepG2 cells [2]; read-out: MMP assays IC50 (µM), qHTS-HepG2) was 1.14 ± 0.07 µM. For the same molecule, the “Complex II % inhibition (activity call)” value [3] was “Inactive”, the Parkin recruitment [4] was “Inactive” and the “Complex V % inhibition (activity call)” value [5] was “Inactive”. For the same molecule, the IC50 (hNSC) was 0.54 µM, the “ARE (HepG2) EC50” value [6] was “Inactive” and the “Complex I % inhibition” value [7] was 18.3±6.97 at 100μM %. For the same molecule, the “LUM: mean difference in luminescence (ATP content) relative to plate controls” value ([8]; 0.5 µM) was -0.09691, the “LUM: mean difference in luminescence (ATP content) relative to plate controls” value ([8]; 1 µM) was 0.04489 and the “LUM: mean difference in luminescence (ATP content) relative to plate controls” value ([8]; 5 µM) was 0.262. The “LUM: mean difference in luminescence (ATP content) relative to plate controls” value ([8]; 10 µM) was 0.184, the “LUM: mean difference in luminescence (ATP content) relative to plate controls” value ([8]; 25 µM) was 0.7982 and the “LUM: mean difference in luminescence (ATP content) relative to plate controls” value ([8]; 50 µM) was 0.8669. The “LUM: mean difference in luminescence (ATP content) relative to plate controls” value ([8]; 75 µM) was 1.247, the “LUM: mean difference in luminescence (ATP content) relative to plate controls” value ([8]; 100 µM) was 1.4191 and the “effect on ATP content (in words)” value ([8]; 0.5–100μM) was “inhibited”. The minimal effective concentration ([8]; Caenorhabditis elegans, read-out: LEC LUM: lowest effect concentration for luminescence, a measure of nematode ATP content) was 25 µM, the “LEC (lowest effect concentration), larval growth assay” value [9] was ≤ 10 µM and the “Complex III % inhibition (activity call)” value [10] was “Inactive”. The IC50 (HepG2 cells [11]; HepG2, 1 h, read-out: HepG2 IC50 Galactose (MMP)) was 1.58 µM, the IC50 (HepG2 cells [11]; HepG2, 1 h, read-out: HepG2 IC50 Glucose (MMP)) was 1.54 µM and the IC50 (HepG2 cells [11]; HepG2, read-out: MMP assays IC50 (µM) HepG2) was 1.38 µM. The Emax (HepG2 cells [11]; HepG2, read-out: MMP assays efficacy (%) HepG2) was 99%, the “p53 (HCT-116) EC50” value [12] was “Inactive” and the IC50 (rat primary hepatocytes [13]; 1 h, read-out: Rat hepatocytes IC50 (MMP)) was 1.27 µM. For the same molecule, the IC50 (rat primary hepatocytes [13]; read-out: MMP assays IC50 (µM) Rat Hepatocytes) was 1.3 ± 0.29 µM, the “MMP assays efficacy (%) Rat Hepatocytes” value (rat primary hepatocytes [14]) was -105±1% and the “Rat hepatocytes (efficacy) (MMP)” value (rat primary hepatocytes [14]) was 1.27±0.23 ( −95.6±2.35 ) %. For the same molecule, the “Complex IV % inhibition (activity call)” value [15] was “Inactive”, the IC50 (HepG2 cells [16]; read-out: ATP (HepG2, galactose) IC50) was 35.4 µM and the IC50 (HepG2 cells [16]; read-out: ATP (HepG2, glucose) IC50) was 30.7 µM. The “EXT: mean difference in nematode size relative to plate controls” value ([17]; 0.5 µM) was 0.01876, the “EXT: mean difference in nematode size relative to plate controls” value ([17]; 1 µM) was -0.05443 and the “EXT: mean difference in nematode size relative to plate controls” value ([17]; 5 µM) was 0.2782. For the same molecule, the “EXT: mean difference in nematode size relative to plate controls” value ([17]; 10 µM) was 0.2152, the “EXT: mean difference in nematode size relative to plate controls” value ([17]; 25 µM) was 0.9725 and the “EXT: mean difference in nematode size relative to plate controls” value ([17]; 50 µM) was 1.753. The “EXT: mean difference in nematode size relative to plate controls” value ([17]; 75 µM) was 1.778, the “EXT: mean difference in nematode size relative to plate controls” value ([17]; 100 µM) was 1.712 and the “effect on larval growth (in words)” value ([17]; 0.5–100μM) was “inhibited”. For the same molecule, the minimal effective concentration ([17]; Caenorhabditis elegans, read-out: LEC EXT: lowest effect concentration for extinction, a measure of nematode size) was 5 µM and the “ROS (HepG2) EC50” value (HepG2 cells [18]) was “Inactive”.
